Measured values taken from article PMC8550792, “Evolution of kinase polypharmacology across HSP90 drug discovery” (Cell Chemical Biology, 2021).

Tests used:
Test in all cases: biochemical
Assay type in all cases: biochemical
382 unique human kinases [1] = target: T1, 382 unique human kinases (Homo sapiens, UniProt Q00526); conditions: kinase CDK3/cyclin E, compound 10 uM; for remaining activity at 10 µM: read-out: % Enzyme Activity (relative to DMSO controls)
T1 construct: purchased Reaction Biology (HotSpot contract assay)
T1 sequence (Q00526 whole entry): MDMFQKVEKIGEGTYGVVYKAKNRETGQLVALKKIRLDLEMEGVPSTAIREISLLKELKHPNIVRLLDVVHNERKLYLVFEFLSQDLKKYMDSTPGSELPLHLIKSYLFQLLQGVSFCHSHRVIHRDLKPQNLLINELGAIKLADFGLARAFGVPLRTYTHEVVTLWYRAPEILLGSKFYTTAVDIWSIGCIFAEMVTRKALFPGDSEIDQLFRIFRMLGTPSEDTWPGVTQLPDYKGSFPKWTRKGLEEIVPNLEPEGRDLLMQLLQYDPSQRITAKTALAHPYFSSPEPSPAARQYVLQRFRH

382 unique human kinases [2] = target: T2, 382 unique human kinases (Homo sapiens, UniProt P07949, Y806H); conditions: RET (Y806H), 10 uM; for remaining activity at 10 µM: read-out: % Enzyme Activity (relative to DMSO controls)
T2 construct: purchased Reaction Biology (HotSpot contract assay)
T2 sequence (P07949 29-1114 Y806H): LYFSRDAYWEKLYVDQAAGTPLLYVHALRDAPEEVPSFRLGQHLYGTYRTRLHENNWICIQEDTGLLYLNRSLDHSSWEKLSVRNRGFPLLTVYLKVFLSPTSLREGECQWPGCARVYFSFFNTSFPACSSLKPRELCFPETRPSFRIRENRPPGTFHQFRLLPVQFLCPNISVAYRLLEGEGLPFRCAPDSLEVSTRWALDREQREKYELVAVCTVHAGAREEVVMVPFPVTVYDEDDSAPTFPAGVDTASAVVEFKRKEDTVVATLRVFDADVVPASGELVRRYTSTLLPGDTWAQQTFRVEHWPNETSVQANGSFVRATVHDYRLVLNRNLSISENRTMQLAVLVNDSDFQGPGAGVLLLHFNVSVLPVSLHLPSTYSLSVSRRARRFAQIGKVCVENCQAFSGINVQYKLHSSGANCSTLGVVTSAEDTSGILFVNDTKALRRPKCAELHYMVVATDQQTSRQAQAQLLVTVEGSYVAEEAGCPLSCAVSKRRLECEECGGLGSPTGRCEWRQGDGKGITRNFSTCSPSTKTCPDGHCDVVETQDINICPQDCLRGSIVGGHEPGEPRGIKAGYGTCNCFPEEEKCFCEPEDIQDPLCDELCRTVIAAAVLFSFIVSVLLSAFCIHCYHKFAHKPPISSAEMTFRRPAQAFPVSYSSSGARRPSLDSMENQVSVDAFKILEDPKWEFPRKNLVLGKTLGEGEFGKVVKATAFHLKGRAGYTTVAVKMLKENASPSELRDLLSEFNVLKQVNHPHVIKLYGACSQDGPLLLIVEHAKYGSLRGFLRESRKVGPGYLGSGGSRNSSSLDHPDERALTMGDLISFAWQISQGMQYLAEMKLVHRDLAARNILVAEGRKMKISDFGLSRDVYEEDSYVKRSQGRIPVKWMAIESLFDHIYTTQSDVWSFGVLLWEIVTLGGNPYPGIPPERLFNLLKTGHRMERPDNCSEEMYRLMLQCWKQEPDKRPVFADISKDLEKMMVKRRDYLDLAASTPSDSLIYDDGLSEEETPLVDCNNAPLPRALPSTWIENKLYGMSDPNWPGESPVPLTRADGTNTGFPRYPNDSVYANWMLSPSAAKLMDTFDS

382 unique human kinases [3] = target: T3, 382 unique human kinases (Homo sapiens, UniProt Q13237); conditions: PKG2/PRKG2; compound at 10 uM; duplicate values; read-out: % Enzyme Activity (relative to DMSO controls)
T3 construct: purchased Reaction Biology (HotSpot contract assay)
T3 sequence (Q13237 whole entry): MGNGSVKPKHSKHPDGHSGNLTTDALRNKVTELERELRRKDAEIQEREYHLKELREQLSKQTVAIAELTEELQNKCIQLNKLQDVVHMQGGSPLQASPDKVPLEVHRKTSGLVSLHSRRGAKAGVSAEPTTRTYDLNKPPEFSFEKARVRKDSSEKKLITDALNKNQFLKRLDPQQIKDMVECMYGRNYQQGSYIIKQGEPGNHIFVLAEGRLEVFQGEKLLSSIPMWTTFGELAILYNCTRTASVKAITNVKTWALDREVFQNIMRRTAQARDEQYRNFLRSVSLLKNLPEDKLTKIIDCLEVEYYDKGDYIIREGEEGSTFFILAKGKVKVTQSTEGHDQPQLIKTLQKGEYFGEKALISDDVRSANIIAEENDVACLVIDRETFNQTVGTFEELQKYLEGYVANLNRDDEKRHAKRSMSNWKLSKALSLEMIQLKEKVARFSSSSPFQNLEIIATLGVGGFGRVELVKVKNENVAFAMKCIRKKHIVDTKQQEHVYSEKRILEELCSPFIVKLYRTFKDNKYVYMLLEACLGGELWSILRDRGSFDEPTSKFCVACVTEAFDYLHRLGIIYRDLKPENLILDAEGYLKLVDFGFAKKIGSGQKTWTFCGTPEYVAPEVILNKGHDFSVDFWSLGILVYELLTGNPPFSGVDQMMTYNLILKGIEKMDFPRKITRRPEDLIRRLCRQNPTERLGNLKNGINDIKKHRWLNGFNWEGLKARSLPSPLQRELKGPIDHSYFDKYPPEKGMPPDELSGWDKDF

382 unique human kinases [4] = target: T4, 382 unique human kinases (Homo sapiens, UniProt P10721, Y823D); conditions: c-Kit (Y823D), [ATP] 100 µM, compound 10 uM; for remaining activity at 10 µM: read-out: % Enzyme Activity (relative to DMSO controls)
T4 construct: purchased Reaction Biology (HotSpot contract assay)
T4 sequence (P10721 26-976 Y823D): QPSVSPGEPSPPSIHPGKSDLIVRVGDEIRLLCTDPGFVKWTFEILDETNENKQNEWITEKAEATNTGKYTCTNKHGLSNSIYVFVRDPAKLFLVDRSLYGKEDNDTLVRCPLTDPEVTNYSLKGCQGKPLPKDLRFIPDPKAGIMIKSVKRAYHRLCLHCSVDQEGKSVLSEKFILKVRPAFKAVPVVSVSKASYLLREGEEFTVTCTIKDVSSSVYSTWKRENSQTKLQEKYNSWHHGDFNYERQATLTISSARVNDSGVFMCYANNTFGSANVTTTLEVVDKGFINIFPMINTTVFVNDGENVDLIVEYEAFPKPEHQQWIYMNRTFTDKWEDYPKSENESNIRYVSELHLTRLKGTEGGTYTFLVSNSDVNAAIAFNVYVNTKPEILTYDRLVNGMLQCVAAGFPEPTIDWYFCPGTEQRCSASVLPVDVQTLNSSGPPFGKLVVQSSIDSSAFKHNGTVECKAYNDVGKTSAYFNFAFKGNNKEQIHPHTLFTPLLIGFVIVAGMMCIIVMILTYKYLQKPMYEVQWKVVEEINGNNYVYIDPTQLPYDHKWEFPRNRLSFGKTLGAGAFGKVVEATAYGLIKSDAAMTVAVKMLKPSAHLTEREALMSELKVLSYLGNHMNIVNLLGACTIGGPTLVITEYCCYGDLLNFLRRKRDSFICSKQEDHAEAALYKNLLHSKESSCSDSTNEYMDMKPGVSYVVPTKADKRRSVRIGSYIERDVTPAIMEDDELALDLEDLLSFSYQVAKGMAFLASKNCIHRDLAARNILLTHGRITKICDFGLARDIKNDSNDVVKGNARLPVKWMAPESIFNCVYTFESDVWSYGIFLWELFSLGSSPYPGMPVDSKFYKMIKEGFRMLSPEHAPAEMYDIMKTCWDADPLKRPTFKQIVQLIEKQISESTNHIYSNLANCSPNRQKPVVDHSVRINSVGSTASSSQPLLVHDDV

382 unique human kinases [5] = target: T5, 382 unique human kinases (Homo sapiens, UniProt P51955); conditions: NEK2, [ATP] 10 µM, compound 10 uM; for remaining activity at 10 µM: read-out: % Enzyme Activity (relative to DMSO controls)
T5 construct: purchased Reaction Biology (HotSpot contract assay)
T5 sequence (P51955 1-445): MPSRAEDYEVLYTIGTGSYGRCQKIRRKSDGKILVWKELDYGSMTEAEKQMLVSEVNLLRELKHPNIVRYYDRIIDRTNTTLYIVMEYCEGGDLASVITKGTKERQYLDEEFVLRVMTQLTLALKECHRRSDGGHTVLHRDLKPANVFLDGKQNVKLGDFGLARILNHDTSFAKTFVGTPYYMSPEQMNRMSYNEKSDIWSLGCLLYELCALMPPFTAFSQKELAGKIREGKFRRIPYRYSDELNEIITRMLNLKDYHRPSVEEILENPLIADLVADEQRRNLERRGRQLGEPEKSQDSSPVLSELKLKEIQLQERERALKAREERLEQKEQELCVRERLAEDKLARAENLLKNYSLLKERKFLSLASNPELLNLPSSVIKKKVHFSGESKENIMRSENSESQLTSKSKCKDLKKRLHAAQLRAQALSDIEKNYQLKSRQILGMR

382 unique human kinases [6] = target: T6, 382 unique human kinases (Homo sapiens, UniProt P00533, G719S); conditions: EGFR (G719S), 10 uM; for remaining activity at 10 µM: read-out: % Enzyme Activity (relative to DMSO controls)
T6 construct: purchased Reaction Biology (HotSpot contract assay)

382 unique human kinases [7] = target: T7, 382 unique human kinases (Homo sapiens, UniProt Q9NYL2); conditions: ZAK/MLTK, [ATP] 50 µM, compound 10 uM; for remaining activity at 10 µM: read-out: % Enzyme Activity (relative to DMSO controls)
T7 construct: purchased Reaction Biology (HotSpot contract assay)
T7 sequence (Q9NYL2 whole entry): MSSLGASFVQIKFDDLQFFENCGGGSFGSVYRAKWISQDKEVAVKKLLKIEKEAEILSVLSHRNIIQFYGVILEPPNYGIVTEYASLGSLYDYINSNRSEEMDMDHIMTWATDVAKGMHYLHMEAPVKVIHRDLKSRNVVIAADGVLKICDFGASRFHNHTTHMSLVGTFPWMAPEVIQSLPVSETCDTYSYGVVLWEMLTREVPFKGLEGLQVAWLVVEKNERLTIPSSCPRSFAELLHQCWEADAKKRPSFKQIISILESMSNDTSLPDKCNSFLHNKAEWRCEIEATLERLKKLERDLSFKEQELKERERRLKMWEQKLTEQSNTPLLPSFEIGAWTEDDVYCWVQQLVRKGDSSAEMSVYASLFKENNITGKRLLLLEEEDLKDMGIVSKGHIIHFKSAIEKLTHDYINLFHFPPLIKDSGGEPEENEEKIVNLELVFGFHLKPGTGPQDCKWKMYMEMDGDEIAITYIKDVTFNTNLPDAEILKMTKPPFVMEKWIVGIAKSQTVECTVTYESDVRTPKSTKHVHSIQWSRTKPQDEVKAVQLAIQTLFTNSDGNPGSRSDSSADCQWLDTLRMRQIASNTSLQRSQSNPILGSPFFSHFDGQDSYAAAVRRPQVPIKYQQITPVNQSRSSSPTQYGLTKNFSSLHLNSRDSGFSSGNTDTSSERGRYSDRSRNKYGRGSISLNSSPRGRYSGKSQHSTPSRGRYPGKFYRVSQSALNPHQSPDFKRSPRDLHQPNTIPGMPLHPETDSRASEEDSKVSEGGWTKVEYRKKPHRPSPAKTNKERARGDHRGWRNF

382 unique human kinases [8] = target: T8, 382 unique human kinases (Homo sapiens, UniProt P21709); conditions: EPHA1, [ATP] 20 µM, compound 10 uM; for remaining activity at 10 µM: read-out: % Enzyme Activity (relative to DMSO controls)
T8 construct: purchased Reaction Biology (HotSpot contract assay)
T8 sequence (P21709 26-976): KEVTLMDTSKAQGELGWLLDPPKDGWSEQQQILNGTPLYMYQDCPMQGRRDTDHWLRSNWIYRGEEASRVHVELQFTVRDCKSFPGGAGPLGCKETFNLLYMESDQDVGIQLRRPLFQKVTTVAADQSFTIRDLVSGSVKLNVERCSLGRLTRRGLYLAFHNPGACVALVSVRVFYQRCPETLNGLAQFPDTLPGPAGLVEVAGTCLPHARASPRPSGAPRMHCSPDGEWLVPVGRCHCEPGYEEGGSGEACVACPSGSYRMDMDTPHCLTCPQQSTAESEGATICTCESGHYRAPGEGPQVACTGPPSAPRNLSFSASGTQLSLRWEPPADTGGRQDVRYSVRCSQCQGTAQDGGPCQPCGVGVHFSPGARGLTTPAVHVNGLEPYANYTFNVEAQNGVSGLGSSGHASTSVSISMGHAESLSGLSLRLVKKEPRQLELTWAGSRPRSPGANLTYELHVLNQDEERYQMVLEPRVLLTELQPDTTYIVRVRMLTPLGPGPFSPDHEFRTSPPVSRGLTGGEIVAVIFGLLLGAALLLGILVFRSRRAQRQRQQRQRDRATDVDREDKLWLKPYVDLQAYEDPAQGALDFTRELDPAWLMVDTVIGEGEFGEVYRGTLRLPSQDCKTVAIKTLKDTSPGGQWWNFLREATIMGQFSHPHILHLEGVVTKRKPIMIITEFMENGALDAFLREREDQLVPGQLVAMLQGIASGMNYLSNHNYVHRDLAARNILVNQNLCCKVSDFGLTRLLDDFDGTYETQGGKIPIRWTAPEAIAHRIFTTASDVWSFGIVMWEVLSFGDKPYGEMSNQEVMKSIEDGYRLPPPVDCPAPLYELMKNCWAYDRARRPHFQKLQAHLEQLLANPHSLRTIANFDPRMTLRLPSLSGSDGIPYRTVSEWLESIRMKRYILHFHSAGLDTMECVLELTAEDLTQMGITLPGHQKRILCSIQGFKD

382 unique human kinases [9] = target: T9, 382 unique human kinases (Homo sapiens, UniProt Q9HAZ1); conditions: CLK4, [ATP] 2.5 µM, compound 10 uM; for remaining activity at 10 µM: read-out: % Enzyme Activity (relative to DMSO controls)
T9 construct: purchased Reaction Biology (HotSpot contract assay)
T9 sequence (Q9HAZ1 whole entry): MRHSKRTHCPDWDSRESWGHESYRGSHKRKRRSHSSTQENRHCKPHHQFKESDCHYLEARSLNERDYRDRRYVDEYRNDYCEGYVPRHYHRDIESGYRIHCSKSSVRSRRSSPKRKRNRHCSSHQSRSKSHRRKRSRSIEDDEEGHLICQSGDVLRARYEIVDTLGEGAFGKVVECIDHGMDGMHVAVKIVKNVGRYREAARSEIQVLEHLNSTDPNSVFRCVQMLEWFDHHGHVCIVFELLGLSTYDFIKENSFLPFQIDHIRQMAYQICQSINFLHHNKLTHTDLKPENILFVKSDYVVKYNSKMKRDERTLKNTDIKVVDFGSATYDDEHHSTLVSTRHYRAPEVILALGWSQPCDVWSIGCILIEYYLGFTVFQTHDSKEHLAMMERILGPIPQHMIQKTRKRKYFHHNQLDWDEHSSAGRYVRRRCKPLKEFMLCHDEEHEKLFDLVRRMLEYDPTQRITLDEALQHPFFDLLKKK

382 unique human kinases [10] = target: T10, 382 unique human kinases (Homo sapiens, UniProt P51956); conditions: NEK3, 10 uM; for remaining activity at 10 µM: read-out: % Enzyme Activity (relative to DMSO controls)
T10 construct: purchased Reaction Biology (HotSpot contract assay)
T10 sequence (P51956 1-506): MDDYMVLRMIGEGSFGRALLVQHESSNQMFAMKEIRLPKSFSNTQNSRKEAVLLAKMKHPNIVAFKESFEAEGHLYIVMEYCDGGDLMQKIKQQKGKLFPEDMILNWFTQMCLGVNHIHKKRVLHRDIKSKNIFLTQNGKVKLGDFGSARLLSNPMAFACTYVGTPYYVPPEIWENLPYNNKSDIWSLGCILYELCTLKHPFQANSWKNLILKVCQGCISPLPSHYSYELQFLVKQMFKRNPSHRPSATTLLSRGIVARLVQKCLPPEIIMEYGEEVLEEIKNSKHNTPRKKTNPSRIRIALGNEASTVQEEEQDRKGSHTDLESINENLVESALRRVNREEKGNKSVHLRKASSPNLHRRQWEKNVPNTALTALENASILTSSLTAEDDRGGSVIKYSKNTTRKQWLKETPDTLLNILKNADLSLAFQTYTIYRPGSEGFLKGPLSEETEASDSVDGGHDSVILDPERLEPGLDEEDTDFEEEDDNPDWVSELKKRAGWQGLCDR

382 unique human kinases [11] = target: T11, 382 unique human kinases (Homo sapiens, UniProt P10721, D816E); conditions: c-Kit (D816E), [ATP] 50 µM, compound 10 uM; for remaining activity at 10 µM: read-out: % Enzyme Activity (relative to DMSO controls)
T11 construct: purchased Reaction Biology (HotSpot contract assay)
T11 sequence (P10721 26-976 D816E): as the sequence (P10721 26-976 Y823D) above, with D791E, D798Y counted along it

382 unique human kinases [12] = target: T12, 382 unique human kinases (Homo sapiens, UniProt Q8N5S9); conditions: CAMKK1, 10 uM; for remaining activity at 10 µM: read-out: % Enzyme Activity (relative to DMSO controls)
T12 construct: purchased Reaction Biology (HotSpot contract assay)
T12 sequence (Q8N5S9 whole entry): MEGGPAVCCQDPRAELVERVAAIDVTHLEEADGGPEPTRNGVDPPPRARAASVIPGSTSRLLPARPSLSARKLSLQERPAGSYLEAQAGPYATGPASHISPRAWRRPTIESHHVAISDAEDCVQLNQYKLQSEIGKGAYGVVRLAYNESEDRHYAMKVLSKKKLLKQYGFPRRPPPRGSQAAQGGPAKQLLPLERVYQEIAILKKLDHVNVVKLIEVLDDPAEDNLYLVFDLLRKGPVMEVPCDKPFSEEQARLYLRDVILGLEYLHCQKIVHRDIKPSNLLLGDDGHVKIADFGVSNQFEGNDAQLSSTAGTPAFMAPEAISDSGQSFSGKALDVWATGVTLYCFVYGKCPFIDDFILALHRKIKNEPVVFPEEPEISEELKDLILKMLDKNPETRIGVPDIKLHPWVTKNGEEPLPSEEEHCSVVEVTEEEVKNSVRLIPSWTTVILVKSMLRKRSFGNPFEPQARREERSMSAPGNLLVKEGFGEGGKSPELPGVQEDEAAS

In the case of `CC(C)c1cc(-c2n[nH]c(=O)n2-c2ccc3c(ccn3C)c2)c(O)cc1O` [Ganetespib (STA9090)], the remaining activity at 10 µM (382 unique human kinases [1]) is reported as 82.2%, the remaining activity at 10 µM (382 unique human kinases [2]) is reported as 78.2% and the remaining activity at 10 µM (382 unique human kinases [3]) is reported as 108%.
`CC(C)c1cc(-c2n[nH]c(=O)n2-c2ccc3c(ccn3C)c2)c(O)cc1O` [Ganetespib] showed a remaining activity at 10 µM (382 unique human kinases [4]) of 49.7%, a remaining activity at 10 µM (382 unique human kinases [5]) of 51.6% and a remaining activity at 10 µM (382 unique human kinases [6]) of 99.7%. The remaining activity at 10 µM (382 unique human kinases [7]) was 48.1%, the remaining activity at 10 µM (382 unique human kinases [8]) was 60.7% and the remaining activity at 10 µM (382 unique human kinases [9]) was 20.7%. For the same compound, the remaining activity at 10 µM (382 unique human kinases [10]) was 117%, the remaining activity at 10 µM (382 unique human kinases [11]) was 41.2% and the remaining activity at 10 µM (382 unique human kinases [12]) was 99%.
With `CCNC(=O)c1noc(-c2cc(C(C)C)c(O)cc2O)c1-c1ccc(CN2CCOCC2)cc1` [Luminespib (AUY-922)] the “% Enzyme Activity (relative to DMSO controls)” value (382 unique human kinases [1]) was 102.34%, the remaining activity at 10 µM (382 unique human kinases [1]) was 103% and the “% Enzyme Activity (relative to DMSO controls)” value (382 unique human kinases [2]) was 88.98%. It also gave a remaining activity at 10 µM (382 unique human kinases [2]) of 89.6% and a remaining activity at 10 µM (382 unique human kinases [3]) of 104%.
For `CCNC(=O)c1noc(-c2cc(C(C)C)c(O)cc2O)c1-c1ccc(CN2CCOCC2)cc1` [Luminespib], the “% Enzyme Activity (relative to DMSO controls)” value (382 unique human kinases [4]) was 59.05%, the remaining activity at 10 µM (382 unique human kinases [4]) was 60.2% and the “% Enzyme Activity (relative to DMSO controls)” value (382 unique human kinases [5]) was 101.57%. The remaining activity at 10 µM (382 unique human kinases [5]) was 103%, the “% Enzyme Activity (relative to DMSO controls)” value (382 unique human kinases [6]) was 98.84% and the remaining activity at 10 µM (382 unique human kinases [6]) was 99.4%. For the same compound, the “% Enzyme Activity (relative to DMSO controls)” value (382 unique human kinases [7]) was 94.35%, the remaining activity at 10 µM (382 unique human kinases [7]) was 99.3% and the “% Enzyme Activity (relative to DMSO controls)” value (382 unique human kinases [8]) was 101.19%. The remaining activity at 10 µM (382 unique human kinases [8]) was 102%, the “% Enzyme Activity (relative to DMSO controls)” value (382 unique human kinases [9]) was 71.69% and the remaining activity at 10 µM (382 unique human kinases [9]) was 72.1%. For the same compound, the “% Enzyme Activity (relative to DMSO controls)” value (382 unique human kinases [10]) was 90.60%, the remaining activity at 10 µM (382 unique human kinases [10]) was 91.5% and the “% Enzyme Activity (relative to DMSO controls)” value (382 unique human kinases [11]) was 73.14%. The remaining activity at 10 µM (382 unique human kinases [11]) was 76.2%, the “% Enzyme Activity (relative to DMSO controls)” value (382 unique human kinases [12]) was 103.58% and the remaining activity at 10 µM (382 unique human kinases [12]) was 104%.
